Experimental data taken from patent publication US8969325B2, “TRPV1 antagonists” (AbbVie Inc., priority 2011, dated 2015).
pIC50: −log10 of the molar value.

Experiments:
human TRPV1 [1] = molecular target: T1, human TRPV1 (Homo sapiens (Human), UniProt Q8NER1); assay: Capsaicin Activation Assay (intracellular Ca2+, FLIPR); format: cell-based; conditions: recombinant HEK293 cells expressing hTRPV1, 50 nM capsaicin
In short: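 Ca2+ fluorescence was recorded by FLIPR every 1 to 5 seconds in HEK293 cells, clonally selected for stable human TRPV1 expression and plated one day ahead. Test compounds came as serial dilutions of 10 mM DMSO stocks.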

human TRPV1 [2] = molecular target: T1, human TRPV1; assay: Acid Activation Assay (pH 5.0, intracellular Ca2+, FLIPR); format: cell-based; conditions: percentage of the maximal pH 5.0-induced response remaining; recombinant HEK293 hTRPV1 cells; maximum concentration tested 37.5 μM
In short: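 Readout: peak [Ca2+]i fluorescence over baseline on FLIPR, expressed as percentage remaining of the maximal pH 5.0-evoked signal. Stable hTRPV1-HEK293 cells with Calcium-4 dye received compound (12 half-log concentrations, maximum 37.5 μM) 3 min before acidic pH 5.0 buffer.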

rats [3] = assay: Rat acute capsaicin-induced flinching behavior; format: in vivo; conditions: 1 h, oral dose given as 100 nmol/kg, capsaicin 2.5 μg into hind paw one hour after compound, five minute observation, relative to control-treated animals, read-out: % effect (percent reduction in the number of flinching behaviors)
Procedure: Rats were placed in individual observation cages. Following an acclimation period of 30 minutes, selected compounds were administered orally at a dose of 100 nmol/kg in a vehicle (10% ethanol/20% Tween 80/70% polyethylene glycol-400) at a volume of 2 mL/kg. One hour after administration of the compound, 2.5 μg of capsaicin in a 10 μL solution of 10% ethanol/90% hydroxypropyl-β-cyclodextrin was injected subcutaneously into the dorsal aspect of the right hind paw. The observation cage was then suspended above mirrors in order to facilitate observation. […] The number of flinching behaviors of the injured paw was recorded during the five minute observation period (Gilchrist, H. D.; Allard, B. L.; Simone, D. A.; Enhanced withdrawal responses to heat and mechanical stimuli following intraplantar injection of capsaicin in rats. Pain, 1996, 67, 179-188). The percent reduction in the number of flinching behaviors produced from oral administration of the test compounds relative to control-treated animals (% effect) is reported in Table 2.

rats [4] = assay: Sodium iodoacetate-induced knee joint osteoarthritic pain model (hind limb grip force); format: in vivo; conditions: rat, po, single acute dose, 1 hour after administration, 20 days after sodium iodoacetate, read-out: % effect (% return to normalcy of hind limb grip force)
Procedure: Unilateral knee joint osteoarthritis was induced in the rats by a single intra-articular (i.a.) injection of sodium iodoacetate (3 mg in 0.05 mL sterile isotonic saline) into the right knee joint cavity under light isoflurane anesthesia using a 26 G needle. […] Pain behavioral assessment of hind limb grip force was conducted by recording the maximum compressive force exerted on the hind limb strain gauge setup, in a commercially available grip force measurement system (Columbus Instruments, Columbus, Ohio). The grip force data was converted to a maximum hindlimb cumulative compressive force (CFmax) (gram force)/kg body weight for each animal. The analgesic effects of test compounds were determined 20 days following the i.a. injection of sodium iodoacetate. The vehicle control group for each compound being tested was assigned 0% whereas the age matched naïve group was assigned as being 100% (normal). The % effect for each dose group was then expressed as % return to normalcy compared to the naïve group. Test compounds were administered orally in 10% ethanol/20% Tween 80/70% polyethylene glycol-400 vehicle at a volume of 2 mL/kg. The assessment of the analgesic effects of test compounds was made 1 hour following oral administration. The assessment of the analgesic effects of test compounds can be made following a single dose or following repeated administration wherein the frequency of dosing is 1 to 2 times daily. The duration of such repeated daily dosing may last for any time greater than one day. A typical duration of repeated daily dosing is about 5 days to about 12 days.

T1 sequence (Q8NER1 whole entry): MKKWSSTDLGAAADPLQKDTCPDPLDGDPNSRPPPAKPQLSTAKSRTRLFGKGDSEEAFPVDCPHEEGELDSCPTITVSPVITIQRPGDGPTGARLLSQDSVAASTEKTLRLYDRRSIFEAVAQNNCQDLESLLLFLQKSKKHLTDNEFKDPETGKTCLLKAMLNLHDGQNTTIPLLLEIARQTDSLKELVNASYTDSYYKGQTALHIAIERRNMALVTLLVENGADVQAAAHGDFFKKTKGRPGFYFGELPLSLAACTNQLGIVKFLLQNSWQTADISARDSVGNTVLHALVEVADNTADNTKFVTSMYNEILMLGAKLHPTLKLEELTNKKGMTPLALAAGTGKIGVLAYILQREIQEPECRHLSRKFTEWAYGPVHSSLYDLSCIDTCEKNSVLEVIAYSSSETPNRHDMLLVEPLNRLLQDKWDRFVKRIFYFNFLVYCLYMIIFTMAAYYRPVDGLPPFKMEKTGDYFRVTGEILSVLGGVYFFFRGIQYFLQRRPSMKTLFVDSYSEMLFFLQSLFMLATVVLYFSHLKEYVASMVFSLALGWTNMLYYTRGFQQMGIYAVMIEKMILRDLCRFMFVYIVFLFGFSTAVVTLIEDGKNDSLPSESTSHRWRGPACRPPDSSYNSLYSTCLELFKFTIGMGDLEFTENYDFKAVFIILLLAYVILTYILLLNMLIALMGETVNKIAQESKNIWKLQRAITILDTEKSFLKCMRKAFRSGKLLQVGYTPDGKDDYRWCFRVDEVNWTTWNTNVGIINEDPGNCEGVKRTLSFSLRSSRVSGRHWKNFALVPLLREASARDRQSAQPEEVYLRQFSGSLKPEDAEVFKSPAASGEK

Row | Structure (SMILES) | pIC50 (human TRPV1 [1]) | human TRPV1 H^+ (max % remain) (human TRPV1 [2]) | inhibition in vivo at 0.1 µmol/kg (rats [3]) | inhibition in vivo at 10 mg/kg (rats [4]) | inhibition in vivo at 14 mg/kg (rats [4]; 14 mg/kg) | inhibition in vivo at 12 mg/kg (rats [4]; 12 mg/kg)
1 | CN1C(=O)CCc2ccc(NC(=O)N[C@@H]3CCc4cc(C(F)(F)F)ccc43)cc21 [Example 36, 1-(1-methyl-2-oxo-1,2,3,4-tetrahydroquinolin-7-yl)-3-[(1R)-5-(trifluoromethyl)-2,3-dihydro-1H-inden-1-yl]urea] | 7.47 | 66% | 60% | – | – | –
2 | O=C1COc2ccc(NC(=O)N[C@@H]3CC(CF)(CF)Oc4cc(C(F)(F)F)ccc43)cc2N1 [Example 324, 1-[(4R)-2,2-bis(fluoromethyl)-7-(trifluoromethyl)-3,4-dihydro-2H-chromen-4-yl]-3-(3-oxo-3,4-dihydro-2H-1,4-benzoxazin-6-yl)urea] | 7.72 | 96% | – | 67% | – | –
3 | CN1C(=O)NCc2c(NC(=O)N[C@@H]3CC(CF)(CF)Oc4cc(Cl)ccc43)cccc21 [Example 2, 1-[(4R)-7-chloro-2,2-bis(fluoromethyl)-3,4-dihydro-2H-chromen-4-yl]-3-(1-methyl-2-oxo-1,2,3,4-tetrahydroquinazolin-5-yl)urea] | 7.44 | 21% | – | – | 36% | –
4 | CC1(C)C[C@@H](NC(=O)Nc2ccc3c(c2)NC(=O)CC3)c2ccc(Cl)c(F)c2O1 [Example 39, 1-[(4R)-7-chloro-8-fluoro-2,2-dimethyl-3,4-dihydro-2H-chromen-4-yl]-3-(2-oxo-1,2,3,4-tetrahydroquinolin-7-yl)urea] | 7.85 | 34% | – | 50% | – | –
5 | C[C@]1(C(F)(F)F)C[C@@H](NC(=O)Nc2ccc3c(c2)NC(=O)CC3)c2ccccc2O1 [Example 34, 1-[(2R,4R)-2-methyl-2-(trifluoromethyl)-3,4-dihydro-2H-chromen-4-yl]-3-(2-oxo-1,2,3,4-tetrahydroquinolin-7-yl)urea] | 8.15 | 34% | – | 46% | – | –
6 | Cn1c(=O)ccc2c(NC(=O)N[C@@H]3CC(C)(C)Oc4cc(F)ccc43)cccc21 [Example 19, 1-[(4R)-7-fluoro-2,2-dimethyl-3,4-dihydro-2H-chromen-4-yl]-3-(1-methyl-2-oxo-1,2-dihydroquinolin-5-yl)urea] | – | 38% | 90% | – | – | –
7 | O=C1CCc2ccc(NC(=O)N[C@@H]3CCc4cc(Cl)ccc43)cc2N1 [Example 251, 1-[(1R)-5-chloro-2,3-dihydro-1H-inden-1-yl]-3-(2-oxo-1,2,3,4-tetrahydroquinolin-7-yl)urea] | 7.11 | 26% | – | 38% | – | –
8 | CCC1(CC)C[C@@H](NC(=O)Nc2ccc3c(c2)NC(=O)CC3)c2cccc(F)c2O1 [Example 222, 1-[(4R)-2,2-diethyl-8-fluoro-3,4-dihydro-2H-chromen-4-yl]-3-(2-oxo-1,2,3,4-tetrahydroquinolin-7-yl)urea] | 7.49 | 30% | – | 26% | – | –
9 | Cn1c(=O)ccc2c(NC(=O)N[C@@H]3C[C@](C)(C(F)F)Oc4ccccc43)cccc21 [Example 28, 1-[(2R,4R)-2-(difluoromethyl)-2-methyl-3,4-dihydro-2H-chromen-4-yl]-3-(1-methyl-2-oxo-1,2-dihydroquinolin-5-yl)urea] | 7.92 | 53% | 81% | – | – | –
10 | CC1(C)C[C@@H](NC(=O)Nc2ccc3c(c2)NC(=O)CC3)c2ccc(F)cc2O1 [Example 221, 1-[(4R)-7-fluoro-2,2-dimethyl-3,4-dihydro-2H-chromen-4-yl]-3-(2-oxo-1,2,3,4-tetrahydroquinolin-7-yl)urea] | 5.80 | 39% | 53% | – | – | –
11 | CC1(C)C[C@@H](NC(=O)Nc2ccc3c(c2)NC(=O)CC3)c2ccc(C(F)(F)F)cc2O1 [Example 32, 1-[(4R)-2,2-dimethyl-7-(trifluoromethyl)-3,4-dihydro-2H-chromen-4-yl]-3-(2-oxo-1,2,3,4-tetrahydroquinolin-7-yl)urea] | 7.44 | 37% | – | 22% | – | –
12 | C[C@]1(C(F)F)C[C@@H](NC(=O)Nc2ccc3c(c2)NC(=O)CO3)c2ccc(Cl)cc2O1 [Example 321, 1-[(2R,4R)-7-chloro-2-(difluoromethyl)-2-methyl-3,4-dihydro-2H-chromen-4-yl]-3-(3-oxo-3,4-dihydro-2H-1,4-benzoxazin-6-yl)urea] | 7.68 | 87% | – | 31% | – | –
13 | Cn1c(=O)ccc2c(NC(=O)N[C@@H]3CC(CF)(CF)Oc4cc(F)ccc43)cccc21 [Example 27, 1-[(4R)-7-fluoro-2,2-bis(fluoromethyl)-3,4-dihydro-2H-chromen-4-yl]-3-(1-methyl-2-oxo-1,2-dihydroquinolin-5-yl)urea] | 7.68 | 42% | 33% | – | – | –
14 | O=C1CCc2ccc(NC(=O)N[C@@H]3CC(CF)(CF)Oc4cc(Cl)ccc43)cc2N1 [Example 31, 1-[(4R)-7-chloro-2,2-bis(fluoromethyl)-3,4-dihydro-2H-chromen-4-yl]-3-(2-oxo-1,2,3,4-tetrahydroquinolin-7-yl)urea] | – | 36% | – | 24% | – | –
15 | Cn1c(=O)ccc2c(NC(=O)N[C@@H]3CC(C)(C)Oc4ccc(F)cc43)cccc21 [Example 24, 1-[(4R)-6-fluoro-2,2-dimethyl-3,4-dihydro-2H-chromen-4-yl]-3-(1-methyl-2-oxo-1,2-dihydroquinolin-5-yl)urea] | 7.68 | 60% | 58% | – | – | –
16 | CN1Cc2ccc(NC(=O)N[C@@H]3CCc4cc(Cl)ccc43)cc2NC1=O [Example 17, 1-[(1R)-5-chloro-2,3-dihydro-1H-inden-1-yl]-3-(3-methyl-2-oxo-1,2,3,4-tetrahydroquinazolin-7-yl)urea] | 7.15 | 54% | 83% | – | – | –
17 | CN1C(=O)NCc2c(NC(=O)N[C@@H]3C[C@@](C)(C(F)F)Oc4ccccc43)cccc21 [Example 13, 1-[(2S,4R)-2-(difluoromethyl)-2-methyl-3,4-dihydro-2H-chromen-4-yl]-3-(1-methyl-2-oxo-1,2,3,4-tetrahydroquinazolin-5-yl)urea] | 7.28 | 41% | – | – | – | 63%
18 | C[C@]1(CF)C[C@@H](NC(=O)Nc2ccc3c(c2)NC(=O)CC3)c2ccc(Cl)cc2O1 [Example 241, 1-[(2R,4R)-7-chloro-2-(fluoromethyl)-2-methyl-3,4-dihydro-2H-chromen-4-yl]-3-(2-oxo-1,2,3,4-tetrahydroquinolin-7-yl)urea] | 6.89 | 54% | 53% | – | – | –
19 | O=C1CCc2ccc(NC(=O)N[C@@H]3CCc4cc(C(F)(F)F)ccc43)cc2N1 [Example 35, 1-(2-oxo-1,2,3,4-tetrahydroquinolin-7-yl)-3-[(1R)-5-(trifluoromethyl)-2,3-dihydro-1H-inden-1-yl]urea] | 8.40 | 38% | – | 42% | – | –
